Results taken from patent US10945992B1, “Dosage forms of rofecoxib and related methods” (Tremeau Pharmaceuticals, Inc., priority 2019, dated 2021).
Like-named read-outs stand apart in the source and are kept apart here.

Tests used:
[1] = TRM-201-PK-101 safety: treatment-emergent adverse events; assay type: in vivo, human; settings: 25 mg, 101 study
Source text: Safety and tolerability will include monitoring and recording of AEs, clinical laboratory assessments (hematology, serum chemistry, and urinalysis), vital sign measurements, 12-lead ECG assessments, and physical examination findings.
A treatment-emergent AE (TEAE) is defined as any event not present before exposure to study drug or any event already present that worsens in either intensity or frequency after exposure to study drug.
All safety data will be summarized for the PILOT portion, MAIN study, and FOOD-EFFECT sub study combined. Subjects who received 2 single doses will be counted once with all of their safety data combined. The incidence of adverse events will be presented by the MedDRA system organ class and preferred term, relationship to the test article, and severity. Descriptive statistics of clinical laboratory results and vital signs will be presented, as well as summaries of changes from baseline (from the Check-in visit(s)) and of clinically notable values.
All AE data will be presented in a data listing by study part and within the FOOD-EFFECT sub study by treatment sequence. TEAEs will be summarized overall, as well as by severity and relationship to study drug. Serious AEs and AEs leading to discontinuation of study drug will also be presented in the data listings and summarized.

[2] = 101 and 102 PK studies combined (fasted); assay type: in vivo; settings: human, plasma, oral; for half-life: read-out: median t1/2 (converted)
Source text: The primary analysis model for data from this trial included data from this trial and that from the 25-mg dose from TRM-201-PK-101 (fasted results only), which were combined via mixed model repeated measures analysis (MMRM) in order to maximize the precision of the estimates. An MMRM analysis on natural log scale was simulated for the 25-mg dose (N=50) data using the between-subject SD of 0.31 from TRM-201-PK-101 and for the estimated 25-mg and 20-mg data that N=20 subjects were expected to yield in this study. The purpose of this simulation was to estimate the SD for the least squares natural log scale mean for the 20-mg dose. […] The subject effect data expected for this study was simulated from the back-calculated variance of the between-subject mean effect (Var (between-subject-mean)=SDbetween^2−SDwithin^2). For the maximum between- and within-SB's 0.31 and 0.12, 1000 simulations yielded an effective SD of 0.21 for the least squares mean of 20 mg, which was used for the following power calculations.
The arithmetic mean AUC0-∞ for 12.5 mg of TRM-201 is 2010 ng·hr/mL. The geometric mean AUC0-∞ for 12.5 mg of TRM-201 is 1880 ng·hr/mL. The arithmetic mean AUC0-∞ for 17.5 mg of TRM-201 is 3290 ng·hr/mL. The geometric mean AUC0-∞ for 17.5 mg of TRM-201 is 3110 ng·hr/mL. The arithmetic mean AUC0-∞ for 20 mg of TRM-201 is 3750 ng·hr/mL. The geometric mean AUC0-∞ for 20 mg of TRM-201 is 3550 ng·hr/mL. The arithmetic mean AUC0-∞ for 25 mg of TRM-201 is 4810 ng·hr/mL. The geometric mean AUC0-∞ for 25 mg of TRM-201 is 4590 ng·hr/mL.
The median time at which the Cmax is observed (Tmax) for 12.5 mg of TRM-201 is 2.00 hours. The median Tmax for 17.5 mg of TRM-201 is 2.00 hours. The Tmax for 20 mg of TRM-201 is 2.00 hours.

[3] = cited from earlier work

## CS(=O)(=O)c1ccc(C2=C(c3ccccc3)C(=O)OC2)cc1 [TRM-201, 4-[4-(methylsulfonyl)phenyl]-3-phenyl-2(5H)-furanone]
[1]
  serious TEAE or TEAE leading to discontinuation of the study: No subjects
  subjects observed with TEAEs: four
  subjects observed with TEAEs, share of the cohort: 7.5%
  subjects with TEAE related to treatment: 2 subjects
  subjects with TEAE related to treatment, share of the cohort: 3.8%
[2]; 12.5 mg, 101 and 102 studies (FIG. 47), read-out: arithmetic mean AUC0-∞
  AUC(0-inf): 2010 ng·h/mL
[2]; 12.5 mg, 101 and 102 studies (FIG. 47), read-out: arithmetic mean Cmax
  Cmax: 151 ng/mL
[2]; 12.5 mg, 101 and 102 studies (FIG. 47), read-out: geometric mean AUC0-∞
  AUC(0-inf): 1880 ng·h/mL
[2]; 12.5 mg, 101 and 102 studies (FIG. 47), read-out: geometric mean Cmax
  Cmax: 144 ng/mL
[2]; 12.5 mg
  half-life: 12 h
[2]; 17.5 mg, 101 and 102 studies (FIG. 47), read-out: arithmetic mean AUC0-∞
  AUC(0-inf): 3290 ng·h/mL
[2]; 17.5 mg, 101 and 102 studies (FIG. 47), read-out: arithmetic mean Cmax
  Cmax: 236 ng/mL
[2]; 17.5 mg, 101 and 102 studies (FIG. 47), read-out: geometric mean AUC0-∞
  AUC(0-inf): 3110 ng·h/mL
[2]; 17.5 mg, 101 and 102 studies (FIG. 47), read-out: geometric mean Cmax
  Cmax: 224 ng/mL
[2]; 17.5 mg, read-out: median Tmax
  Tmax: 2 h
[2]; 17.5 mg
  half-life: 11.7 h
[2]; 20 mg, 101 and 102 studies (FIG. 47), read-out: arithmetic mean AUC0-∞
  AUC(0-inf): 3750 ng·h/mL
[2]; 20 mg, 101 and 102 studies (FIG. 47), read-out: arithmetic mean Cmax
  Cmax: 277 ng/mL
[2]; 20 mg, 101 and 102 studies (FIG. 47), read-out: geometric mean AUC0-∞
  AUC(0-inf): 3550 ng·h/mL
[2]; 20 mg, 101 and 102 studies (FIG. 47), read-out: geometric mean Cmax
  Cmax: 259 ng/mL
[2]; 20 mg, read-out: Tmax
  Tmax: 2 h
[2]; 20 mg
  half-life: 12.2 h
[2]; 25 mg, 101 and 102 studies combined (FIG. 47), read-out: arithmetic mean AUC0-∞
  AUC(0-inf): 4810 ng·h/mL
[2]; 25 mg, 101 and 102 studies combined (FIG. 47), read-out: arithmetic mean Cmax
  Cmax: 336 ng/mL
[2]; 25 mg, 101 and 102 studies combined (FIG. 47), read-out: geometric mean AUC0-∞
  AUC(0-inf): 4590 ng·h/mL
[2]; 25 mg, 101 and 102 studies combined (FIG. 47), read-out: geometric mean Cmax
  Cmax: 325 ng/mL
[2]; 25 mg, 101 and 102 studies combined, read-out: Tmax
  Tmax: 2.5 h
[2]; 25 mg, 101 and 102 studies combined
  half-life: 11.6 h
[3]; FDA 2005
  incidence of gastrointestinal (GI) ulcers visualized at endoscopy compared to certain non-selective NSAIDs: reduction
[3]; following chronic use, FDA 2005
  risk of serious GI bleeding compared to a non-selective NSAID (naproxen): reduce the risk
[3]; long-term controlled clinical trial / FDA 2005
  risk of serious adverse cardiovascular events compared to placebo: increased risk
